{"source": "patent US10751329B2", "about": "“Treatment of CDKL5 disorders with GSK3β inhibitor tideglusib” (priority 2016, dated 2020)", "key": {"[1]": {"test_system": "GSK3β Ser9-phosphorylation in hippocampal neurons from Cdkl5 KO mice", "test": "Western blot of P-GSK3β-Ser9 in hippocampal neuronal cultures (DIV10)", "format": "cell-based", "conditions": "chronic treatment 1 μm from DIV2, DIV10", "description": "Hippocampal cultures were treated with 1 μm NP-12 starting from DIV2. […] Values are represented as means±SD. *p<0.05 as compared to the untreated Cdkl5^+/Y condition; #p<0.05; ##p<0.01 as compared to the untreated Cdkl5^−/Y samples (Duncan's test after ANOVA).\nHippocampal neurons were prepared from postnatal day 1 (P1) Cdkl5^−/Y and Cdkl5^X/Y male mice. Briefly, hippocampi were dissected from mouse brains under a dissection microscope and treated with trypsin (Sigma Aldrich) for 15 min at 37° C. and DNase (Sigma Aldrich) for 2 min at room temperature before triturating mechanically with fire-polished glass pipette to obtain a single-cell suspension. Approximately 1.2×10^5 cells were plated on coverslips coated with poly-1-lysine in 12-well plates and cultures in Neurobasal medium (Invitrogen) supplemented with B27 (Invitrogen) and glutamine (Invitrogen). Cells were maintained in vitro at 37° C. in a 5% CO2-humified incubator and fixed for immunostaining or Western Blot analysis at 10 days after plating (DIV10). 1 μM NP-12 (Sigma) was administrated on alternate days.\nFor Western Blot analysis hippocampal neurons at DIV10 were lysed in ice-cold RIPA lysis buffer (50 mM Tris-HCl pH 7.4, 150 mM NaCl, 1% Triton-X100, 0.5% sodium deoxycholate, 0.1% SDS) supplemented with 1 mM PMSF and 1% proteases and phosphatases inhibitor cocktail (Sigma). […]"}, "Cdkl5^−/Y mice [2]": {"test_system": "Cdkl5^−/Y mice", "test": "Spine density and morphology of Golgi-stained granule cells", "format": "in vivo", "conditions": "20 mg/kg s.c. every other day from P25, P45", "description": "(B) Images of Golgi-stained dendritic branches of granule cells of untreated and treated Cdkl5^+/Y and Cdkl5^−/Y male mice. […] The day of birth was designed as postnatal day (P) zero (P0) and animals with 24 hours of age were considered as one-day-old animals (P1). After weaning, mice were housed three to five per cage and were on a 12-hour (h) light/dark cycle in a temperature-controlled environment with food and water provided ad libitum. […] Animals were sacrificed 4 hours after the last injection on P45. Brains were Golgi-stained using the FD Rapid Golgi Stain™ Kit (FD NeuroTechnologies, Inc., Columbia, Md., USA). […] In Golgi-stained sections, spines of granule cells were counted using a 100× oil immersion objective lens. Dendritic spine density was measured by manually counting the number of dendritic spines on dendritic segments in the inner and outer half of the molecular layer and expressed as the number of dendritic spines per 20 μm dendritic length. The dendritic spine length was measured by manually drawing a vertical line from the tip of the protrusion to the point where it met the dendritic shaft. The number of spine clusters was counted manually on dendritic segments in the inner and outer half of the molecular layer and expressed as number of spine clusters per 20 μm dendritic length. […] The number of spines belonging to the different group was counted."}, "CDKL5 KO mice [3]": {"test_system": "CDKL5 KO mice", "test": "Neuronal survival and maturation (DCX-positive neurons, dendritic length and branches), juvenile and adult mice", "format": "in vivo", "conditions": "juvenile CDKL5 KO mice (treated from P25, P45)", "protocol": "(§1) FIGS. 22A-22B show an experimental protocol for evaluating the effect of NP-12 in juvenile and adult mice. Starting from postnatal day 25 (P25) for juvenile mice (A) or postnatal day 90 (P90) for adult mice (B), Cdkl5^+/Y and Cdkl5^−/Y male mice were treated with vehicle or NP-12, administered by subcutaneous injection every other day for 20 days. Animals were sacrificed after the last injection (on P45 and P110 for juvenile and adult mice, respectively) or were behaviorally tested. Abbreviations: +/Y: wildtype male mice; −/Y: Cdkl5 KO male mice; P, postnatal day.\nFIGS. 25A-25B show the quantification of the number of DCX-positive postmitotic neurons in the dentate gyrus of vehicle treated and NP-12 treated Cdkl5+/Y and −/Y male mice aged P45 (A) and aged P110 (B). Data are expressed as number of cells/100 μm. Values are represented as means±SE. *p<0.05, **p<0.01, ***p<0.001 as compared to the vehicle-treated Cdkl5+/Y condition; #p<0.05; ##p<0.01, ###p<0.001 as compared to the vehicle-treated Cdkl5 −/Y condition (Duncan's test after ANOVA).\nFIGS. 26A-26B show the mean total dendritic length and mean number of dendritic branches of newborn granule cells of vehicle treated and NP-12 treated Cdkl5+/Y and −/Y male mice aged P45 (A) and aged P110 (B)."}, "Cdkl5^−/Y mice [4]": {"test_system": "Cdkl5^−/Y mice", "test": "Passive avoidance (PA) test", "format": "in vivo", "conditions": "at the end of treatment", "description": "Starting from postnatal day 25 (P25), Cdkl5^+/Y WT and Cdkl5^−/Y KO male mice were treated with vehicle (corn oil; Sigma-Aldrich) or NP-12 (20 mg/kg; Sigma-Aldrich), administered by subcutaneous injection every other day for 20 days. […] For the PA test we used a tilting-floor box (47×18×26 cm) divided into two compartments by a sliding door and a control unit incorporating a shocker (Ugo Basile, Italy). This classic instrument for Pavlovian conditioning exploits the tendency in mice to escape from an illuminated area into a dark one (step-through method). On the first day mice were individually placed into the illuminated compartment. After 60 seconds of habituation period, the connecting door between the chambers opened. In general, mice step quickly through the gate and enter the dark compartment because mice prefer to be in the dark. Upon entering the dark compartment, mice received a brief foot shock (0.7 mA for 3 seconds) and were removed from the chamber after 15 seconds of latency. If the mouse remained in the light compartment for the duration of the trial (358 s), the door closed and the mouse was removed from the light compartment. […] After a 24 hour retention period, mice were placed back into the light compartment and the time it took them to re-enter the dark compartment (latency) was measured up to 358 seconds."}, "GSK3β-dependent targets": {"test_system": "GSK3β-dependent targets", "test": "Western blot of GSK3β-dependent targets (β-catenin, P-CRMP2 Thr-514, P-CREB Ser-133) in hippocampus, juvenile and adult mice", "format": "in vivo", "conditions": "juvenile CDKL5 KO mice (treated from P25, P45)", "excerpt": "Data are expressed as percentage of vehicle treated Cdkl5+/Y mice of the same age. Values are represented as means±SE. *p<0.05, **p<0.01, ***p<0.001 as compared to the vehicle-treated Cdkl5 +/Y condition; #p<0.05; ##p<0.01, ###p<0.001 as compared to the vehicle-treated Cdkl5 −/Y condition (Duncan's test after ANOVA)."}, "[5]": {"test_system": "hippocampal neurons from Cdkl5 KO mice", "test": "Polarization and morphological analysis of MAP2-stained hippocampal neurons", "format": "cell-based", "conditions": "Cdkl5 KO hippocampal cultures; 1 μM, DIV10", "excerpt": "(C-D) Graphs showing the percentage of polarized neurons (C) and the quantification of the length of the longest axon and dendrite (D) in treated and untreated in hippocampal cultures as in A. (E) Representative images of MAP2-stained hippocampal neurons as in A. Data are expressed as fold difference in comparison to hippocampal neurons from untreated Cdkl5^+/Y mice. Values are represented as means±SD. *p<0.05 as compared to the untreated Cdkl5^+/Y condition; #p<0.05; ##p<0.01 as compared to the untreated Cdkl5^−/Y samples (Duncan's test after ANOVA).\nHippocampal neurons were prepared from postnatal day 1 (P1) Cdkl5^−/Y and Cdkl5^X/Y male mice. […]\nTo define the degree of polarization of neuronal dendrites, we followed the method described by Horton et al. (FIG. 3) (Horton et al. 2006. Brain Cell. Biol. 35:29-38). Briefly, the measured lengths of dendrites (Lm) in each neuron (including the primary dendrite/axon with all its branches) were ranked highest to lowest. […]\nThe morphological analysis of hippocampal neurons was focused on two parameters: length of the longest dendrite (D1) and total dendritic length. To achieve this aim, dendritic length of MAP2-positive neurons were measured and quantified by tracing along each neuronal projection using the image analysis system Image Pro Plus (Media Cybernetics, Silver Spring, Md. 20910, USA). […]"}, "GSK3β": {"test_system": "GSK3β", "test": "Western blot of P-GSK3β-Ser9, GSK3β and β-catenin in hippocampal extracts of treated mice", "conditions": "20 mg/kg s.c. every other day from P25, P45"}, "Cdkl5^−/Y mice [6]": {"test_system": "Cdkl5^−/Y mice", "test": "Dendritic development of granule cells (DCX and Golgi staining)", "format": "in vivo", "conditions": "20 mg/kg s.c. every other day from P25, P45", "protocol": "After weaning, mice were housed three to five per cage and were on a 12-hour (h) light/dark cycle in a temperature-controlled environment with food and water provided ad libitum. […] Animals were sacrificed 4 hours after the last injection on P45."}, "Cdkl5^−/Y mice [7]": {"test_system": "Cdkl5^−/Y mice", "test": "Neuronal survival in the dentate gyrus (cleaved caspase-3, DCX immunohistochemistry)", "format": "in vivo", "conditions": "20 mg/kg s.c. every other day from P25, P45", "source_text": "(B,C) Examples of sections processed for DCX immunostaining from the dentate gyrus (DG) of untreated and treated Cdkl5^+/Y and Cdkl5^−/Y male mice. (C). […] Scale bar=30 μm; type 2b/3 cells and immature neurons were counted separately. (B) Number of DCX-positive type 2b/3 precursor cells and DCX-positive immature neurons in the DG of mice of untreated (+/Y n=3, −/Y n=3) and treated (+/Y n=3, −/Y n=3) Cdkl5 mice. Values in A represent totals for one DG (mean±SD), data in B are expressed as number of cells/100 μm. *p<0.05; **p<0.01 as compared to the untreated Cdkl5^+/Y condition; ##p<0.01; ###p<0.001 as compared to the untreated Cdkl5^−/Y samples (Duncan's test after ANOVA). Abbreviations: GR, granular layer; SGZ, subgranular zone.\nThe day of birth was designed as postnatal day (P) zero (P0) and animals with 24 hours of age were considered as one-day-old animals (P1). After weaning, mice were housed three to five per cage and were on a 12-hour (h) light/dark cycle in a temperature-controlled environment with food and water provided ad libitum. […]\nOne out of 6 sections from the hippocampal formation were used for immunohistochemistry for cleaved caspase-3 (1:200, anti-cleaved caspase-3 rabbit polyclonal Ab, Cell Signaling Technology), doublecortin (1:100, anti-DCX goat polyclonal Ab, Santa Cruz Biotechnology), synaptophysin (1:1000, anti-SYN (SY38) mouse monoclonal Ab, MAB 5258, Merck Millipore) and PSD-95 (1:1000, anti-PSD-95 rabbit polyclonal Ab, Abcam) or double fluorescence immunohistochemistry for synaptophysin, and PSD-95. […]\nThe total number of positive cells in the DG (cleaved caspase-3, DCX) was estimated by multiplying the total number counted in the series of sampled sections by the inverse of the section sampling fraction (ssf=⅙). The total number of cells of each phenotype was estimated by multiplying the number counted in the series of sections by the inverse of the section sampling fraction (ssf=⅙)."}, "[8]": {"test_system": "Cdkl5 KO hippocampal neurons", "test": "Synaptophysin (SYN) puncta in hippocampal neuronal cultures", "format": "cell-based, mice", "conditions": "1 μM every other day, DIV7 to DIV12", "description": "Immunostaining for cultured hippocampal neurons were performed with the following procedure. Cells were fixed in 4% PFA+4% sucrose in PBS for 20 min and washed five times in PBS. After permeabilization with PBST cells were incubated overnight at 4° C. o/n with the following antibodies: rabbit polyclonal anti-MAP2 (1:100, Millipore) and SYN (SY38) antibody (1:1000, MAB 5258, Merck Millipore). Sections were then incubated for 2 h at room temperature with a FITC-conjugated goat anti-mouse IgG (1:100; Sigma-Aldrich) and a Cy3-conjugated anti-rabbit IgG (1:100, Jackson Immunoresearch).\nTo develop the cultures the hippocampal neuronal cells were harvested on postnatal day 1, which was considered division 0 (DIV 0) and cultured in vitro for the remainder of the experiment. […] Results are presented as mean±SD. Data were analyzed with Duncan's test after ANOVA. A probability level of p<0.05 was considered to be statistically significant. *P, 0.05, **P<0.01, ***p<0.001 as compared to the untreated wild-type (Cdkl5+/Y) condition; #p<0.05, ##p<0.01 ###p<0.001 as compared to the untreated Cdkl5 KO (−/Y) samples."}, "Cdkl5^−/Y mice [9]": {"test_system": "Cdkl5^−/Y mice", "test": "Granule cell density, number and layer volume in the dentate gyrus", "format": "in vivo", "conditions": "20 mg/kg s.c. every other day from P25, P45"}, "Cdkl5^−/Y mice [10]": {"test_system": "Cdkl5^−/Y mice", "test": "Hippocampal connectivity: SYN and PSD-95 immunoreactivity and puncta in the molecular layer of the DG", "format": "in vivo", "conditions": "20 mg/kg s.c. every other day from P25, P45", "protocol": "After weaning, mice were housed three to five per cage and were on a 12-hour (h) light/dark cycle in a temperature-controlled environment with food and water provided ad libitum. Starting from postnatal day 25 (P25), Cdkl5^+/Y WT and Cdkl5^−/Y KO male mice were treated with vehicle (corn oil; Sigma-Aldrich) or NP-12 (20 mg/kg; Sigma-Aldrich), administered by subcutaneous injection every other day for 20 days. Animals were sacrificed 4 hours after the last injection on P45."}, "CDKL5 KO mice [11]": {"test_system": "CDKL5 KO mice", "test": "Hippocampus-dependent learning and memory (Morris water maze, passive avoidance), juvenile and adult mice", "format": "in vivo", "conditions": "juvenile CDKL5 KO mice (treated from P25, P45)", "description": "Starting from postnatal day 25 (P25) for juvenile mice (A) or postnatal day 90 (P90) for adult mice (B), Cdkl5^+/Y and Cdkl5^−/Y male mice were treated with vehicle or NP-12, administered by subcutaneous injection every other day for 20 days. Animals were sacrificed after the last injection (on P45 and P110 for juvenile and adult mice, respectively) or were behaviorally tested. […] Spatial learning and memory (probe test) assessed with the Morris water maze in vehicle treated and NP-12 treated Cdkl5+/Y and −/Y male mice aged P45 (A) and aged P110 (B). Passive avoidance test (PA) on vehicle treated and NP-12 treated Cdkl5+/Y and −/Y male mice aged P45 (C). Graphs show the latency time to enter the dark compartment on the first day and on the second day of the behavioral procedure. Values are represented as means±SE. *p<0.05, **p<0.01, ***p<0.001 as compared to the vehicle-treated Cdkl5+/Y condition; #p<0.05; ##p<0.01, ###p<0.001 as compared to the vehicle-treated Cdkl5−/Y condition (Duncan's test after ANOVA)."}, "CDKL5 KO mice [12]": {"test_system": "CDKL5 KO mice", "test": "Synapse development (SYN and PSD-95 puncta in the DG), juvenile mice", "format": "in vivo", "conditions": "juvenile CDKL5 KO mice (treated from P25, P45)", "protocol": "as §1\nValues are represented as means±SE. *p<0.05, **p<0.01, ***p<0.001 as compared to the vehicle-treated Cdkl5+/Y condition; #p<0.05; ##p<0.01, ###p<0.001 as compared to the vehicle-treated Cdkl5 −/Y condition (Duncan's test after ANOVA)."}, "CDKL5 KO mice [13]": {"test_system": "CDKL5 KO mice", "conditions": "cited from earlier work"}}, "data": [{"smiles": "O=c1sn(-c2cccc3ccccc23)c(=O)n1Cc1ccccc1", "note": "[NP-12, tideglusib]", "values": [{"measurement": "GSK3β Ser9-phosphorylation", "setting": "[1]", "value": "completely restores GSK3β Ser9-phosphorylation"}, {"measurement": "dendritic spine density of granule cells", "setting": "Cdkl5^−/Y mice [2]", "value": "no effect on spine density"}, {"measurement": "spine shape morphology (percentage of immature and mature spines)", "setting": "Cdkl5^−/Y mice [2]; Cdkl5 KO mice", "value": "completely restored"}, {"measurement": "neuronal survival and maturation", "setting": "CDKL5 KO mice [3]", "value": "restores neuronal survival and maturation in juvenile"}, {"measurement": "latency time to enter the dark compartment, second day (test)", "setting": "Cdkl5^−/Y mice [4]; Cdkl5^−/Y mice, 24 hours after shock", "value": "underwent an increase and there was no significant difference in comparison to untreated Cdkl5^+/Y mice"}, {"measurement": "latency time to enter the dark compartment, first day", "setting": "Cdkl5^−/Y mice [4]; all groups", "value": "all groups showed similar step-through latencies"}, {"measurement": "GSK3β-dependent targets (β-catenin, P-CRMP2 Thr-514, P-CREB Ser-133)", "setting": "GSK3β-dependent targets", "value": "restores GSK3β-dependent targets in juvenile"}, {"measurement": "axon and dendrite maturation (length of the longest axon and dendrite)", "setting": "[5]", "value": "had positive effects on correct axon and dendrite maturation"}, {"measurement": "percentage of polarized neurons", "setting": "[5]", "value": "efficiently ameliorated the percentage of polarized neurons"}, {"measurement": "total GSK3β levels in hippocampus", "setting": "GSK3β", "value": "no effect"}, {"measurement": "Ser9-phosphorylated GSK3β levels in hippocampus", "setting": "GSK3β; Cdkl5^−/Y male mice", "value": "increased Ser9-phosphorylated GSK3β levels in Cdkl5^−/Y mice that became even higher to those of the untreated Cdkl5^+/Y counterparts"}, {"measurement": "β-catenin levels in hippocampus", "setting": "GSK3β; Cdkl5^−/Y male mice", "value": "complete recovery of β-catenin levels"}, {"measurement": "dendritic length of newborn (DCX-positive) granule cells", "setting": "Cdkl5^−/Y mice [6]", "value": "increase in both parameters that became similar or even greater than those of untreated Cdkl5^+/Y mice"}, {"measurement": "dendritic length of older Golgi-stained granule cells", "setting": "Cdkl5^−/Y mice [6]", "value": "completely rescued"}, {"measurement": "number of dendritic branches of newborn (DCX-positive) granule cells", "setting": "Cdkl5^−/Y mice [6]", "value": "increase in both parameters that became similar or even greater than those of untreated Cdkl5^+/Y mice"}, {"measurement": "number of dendritic segments of older Golgi-stained granule cells", "setting": "Cdkl5^−/Y mice [6]", "value": "completely rescued"}, {"measurement": "cell death: cleaved caspase-3 positive cells in the dentate gyrus", "setting": "Cdkl5^−/Y mice [7]; Cdkl5 KO male mice", "value": "completely restored"}, {"measurement": "survival rate of the postmitotic granule cells", "setting": "Cdkl5^−/Y mice [7]; Cdkl5^−/Y mice", "value": "restores the survival rate of the postmitotic granule cells"}, {"measurement": "number of DCX-positive immature neurons in the dentate gyrus", "setting": "Cdkl5^−/Y mice [7]; treated mice vs untreated Cdkl5^+/Y", "value": "underwent an increase in the number of DCX-positive neurons, that became similar to that of untreated Cdkl5^+/Y littermates"}, {"measurement": "number of synaptophysin (SYN) puncta", "setting": "[8]", "value": "completely restore"}, {"measurement": "granule cell density in the dentate gyrus", "setting": "Cdkl5^−/Y mice [9]", "value": "fully restored"}, {"measurement": "total granule cell number in the dentate gyrus", "setting": "Cdkl5^−/Y mice [9]", "value": "fully restored"}, {"measurement": "volume of the granule cell layer", "setting": "Cdkl5^−/Y mice [9]", "value": "without affecting the volume of the granule cell layer"}, {"measurement": "density of PSD-95 puncta in the molecular layer of the DG", "setting": "Cdkl5^−/Y mice [10]", "value": "completely restored"}, {"measurement": "density of SYN puncta in the molecular layer of the DG", "setting": "Cdkl5^−/Y mice [10]", "value": "completely restored"}, {"measurement": "optical density of PSD-95 immunoreactivity in the molecular layer of the DG", "setting": "Cdkl5^−/Y mice [10]", "value": "fully rescued"}, {"measurement": "optical density of SYN immunoreactivity in the molecular layer of the DG", "setting": "Cdkl5^−/Y mice [10]", "value": "fully rescued"}, {"measurement": "hippocampus-dependent behavior defects (learning and memory)", "setting": "CDKL5 KO mice [11]", "value": "corrects hippocampus-dependent behavior defects in juvenile"}, {"measurement": "synapse development (SYN and PSD-95 puncta)", "setting": "CDKL5 KO mice [12]", "value": "restores synapse development in juvenile CDKL5 KO mice"}]}, {"smiles": "Cn1cc(C2=C(c3ccc(Cl)cc3Cl)C(=O)NC2=O)c2ccccc21", "note": "[SB216763]", "values": [{"measurement": "hippocampal development", "setting": "CDKL5 KO mice [13]", "value": "restore hippocampal development by restoring dendritic development, spine morphology and distribution, survival of newborn granule cells, and connectivity"}]}]}
